Measurements published in publication PMC3812394 (Biochemistry, 2013).

Molecular target: T1, Chloroperoxidase (CPO) (Leptoxyphium fumago, UniProt P04963)
T1 sequence (P04963 21-319): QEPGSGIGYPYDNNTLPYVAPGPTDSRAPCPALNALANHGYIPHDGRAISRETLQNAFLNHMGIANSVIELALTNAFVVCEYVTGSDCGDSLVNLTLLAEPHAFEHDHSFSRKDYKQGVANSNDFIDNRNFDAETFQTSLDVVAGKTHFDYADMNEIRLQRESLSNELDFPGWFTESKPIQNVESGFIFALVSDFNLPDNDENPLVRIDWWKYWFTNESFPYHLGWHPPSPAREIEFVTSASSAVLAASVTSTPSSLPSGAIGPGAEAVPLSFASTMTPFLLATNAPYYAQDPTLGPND
Test: paramagnetic NMR T1 relaxation titration with purified CPO
Assay type: binding

Q: For `c1ccc2[nH]ccc2c1` [indole], which Kd is on record?
A: ~21 mM
